According to ChEMBL document CHEMBL4190162, “SAR and identification of 2-(quinolin-4-yloxy)acetamides as Mycobacterium tuberculosis cytochrome bc1 inhibitors” (Medchemcomm, 2016):
Converted amounts (≈) assume the structure as drawn. The source made the active and inactive calls. The rule behind the calls is not given here.

Assays:
[1] = test system: Mycobacterium tuberculosis; assay: Antimycobacterial activity against Mycobacterium tuberculosis H37Rv after 2 weeks by microplate alamar blue assay; type: functional; settings: 336 h
[2] = test system: Mycobacterium tuberculosis; assay: Antimycobacterial activity against Mycobacterium tuberculosis H37Rv BSG001; type: functional, organism-based
Staphylococcus aureus = assay: Antibacterial activity against Staphylococcus aureus XEN36; type: functional, organism-based
[3] = test system: Mycolicibacterium smegmatis; assay: Antibacterial activity against Mycobacterium smegmatis; type: functional, organism-based
[4] = test system: Mycobacterium tuberculosis; assay: Antimycobacterial activity against Mycobacterium tuberculosis H37Rv measured after 1 week; type: functional; settings: 168 h
[5] = Cytotoxicity against human HepG2 cells after 24 to 48 hrs in presence of glucose by trypan blue dye-based hemocytometric method; type: cell-based
[6] = test system: Mycobacterium tuberculosis H37Rv; assay: Inhibition of Mycobacterium tuberculosis H37Rv cytochrome bc1 oxidase assessed as reduction in ATP level measured up to 24 hrs under anaerobic condition
[7] = test system: Mycobacterium tuberculosis; assay: Antimycobacterial activity against Mycobacterium tuberculosis H37Rv measured after 2 weeks; type: functional; settings: 336 h
Escherichia coli = assay: Antibacterial activity against Escherichia coli 25922; type: functional, organism-based; settings: ATCC 25922
[8] = Cytotoxicity against human HepG2 cells after 24 to 48 hrs in presence of galactose by trypan blue dye-based hemocytometric method; type: cell-based
[9] = test system: Mycobacteroides abscessus; assay: Antibacterial activity against Mycobacterium abscessus; type: functional, organism-based

In the case of COc1ccccc1NC(=O)COc1cc(C)nc2ccc(Cl)cc12, the MIC [1] is reported as 104 µM (≈ 37 µg/mL), the Activity [2] is reported as “inactive” and the Activity (Staphylococcus aureus) is reported as “inactive”. The Activity [3] was “inactive”, the MIC [4] was 26.4 µM (≈ 9.4 µg/mL) and the CC50 [5] was 140 µM. For the same compound, the inhibition [6] was “Active”, the MIC [7] was greater than 140 µM and the Activity (Escherichia coli) was “inactive”. The CC50 [8] was 99.2 µM and the Activity [9] was “inactive”.

For COc1ccc2nc(C)cc(OCC(=O)Nc3ccc(Cl)cc3)c2c1, the MIC [1] was 3.36 µM (≈ 1.2 µg/mL), the Activity [2] was “inactive” and the Activity (Staphylococcus aureus) was “inactive”. The Activity [3] was “inactive”, the MIC [4] was 104 µM (≈ 37 µg/mL) and the CC50 [5] was 89.9 µM. The inhibition [6] was “Active”, the MIC [7] was greater than 140 µM and the Activity (Escherichia coli) was “inactive”. For the same compound, the CC50 [8] was 71.1 µM and the Activity [9] was “inactive”.

In the case of COc1ccc(OC)c(CCNC(=O)COc2cc(C)nc3ccc(OC)cc23)c1, the MIC [1] is reported as 60.9 µM (≈ 25 µg/mL), the Activity [2] is reported as “inactive” and the Activity (Staphylococcus aureus) is reported as “inactive”. The Activity [3] was “inactive”, the MIC [4] was 122 µM (≈ 50 µg/mL) and the CC50 [5] was greater than 122 µM. The inhibition [6] was “Active”, the MIC [7] was greater than 122 µM and the Activity (Escherichia coli) was “inactive”. The CC50 [8] was greater than 122 µM and the Activity [9] was “inactive”.

In the case of COc1ccc2nc(C)cc(OCC(=O)Nc3cccc(Br)c3)c2c1, the MIC [1] is reported as greater than 125 µM, the Activity [2] is reported as “inactive” and the Activity (Staphylococcus aureus) is reported as “inactive”. The Activity [3] was “inactive”, the MIC [4] was 92.2 µM (≈ 37 µg/mL) and the CC50 [5] was greater than 125 µM. For the same compound, the inhibition [6] was “Active”, the MIC [7] was greater than 125 µM and the Activity (Escherichia coli) was “inactive”. For the same compound, the CC50 [8] was greater than 125 µM and the Activity [9] was “inactive”.

In the case of COc1ccc(NC(=O)COc2cc(C)nc3ccc(OC)cc23)cc1, the MIC [1] is reported as 1.11 µM (≈ 0.391 µg/mL), the Activity [2] is reported as “inactive” and the Activity (Staphylococcus aureus) is reported as “inactive”. For the same compound, the Activity [3] was “inactive”, the MIC [4] was 2.21 µM (≈ 0.779 µg/mL) and the CC50 [5] was greater than 142 µM. For the same compound, the inhibition [6] was “Active”, the MIC [7] was greater than 142 µM and the Activity (Escherichia coli) was “inactive”. The CC50 [8] was greater than 142 µM and the Activity [9] was “inactive”.

With COc1ccc2nc(C)cc(OCC(=O)Nc3ccccc3Cl)c2c1 the MIC [1] was 0.56 µM (≈ 0.2 µg/mL), the Activity [2] was “inactive” and the Activity (Staphylococcus aureus) was “inactive”. The Activity [3] was “inactive”, the MIC [4] was 26.4 µM (≈ 9.4 µg/mL) and the CC50 [5] was greater than 140 µM. For the same compound, the inhibition [6] was “Active”, the MIC [7] was 53.2 µM (≈ 19 µg/mL) and the Activity (Escherichia coli) was “inactive”. For the same compound, the CC50 [8] was greater than 140 µM and the Activity [9] was “inactive”.

In the case of COc1ccc2nc(C)cc(OCC(=O)Nc3ccccc3)c2c1, the MIC [1] is reported as 0.62 µM (≈ 0.2 µg/mL), the Activity [2] is reported as “inactive” and the Activity (Staphylococcus aureus) is reported as “inactive”. For the same compound, the Activity [3] was “inactive”, the MIC [4] was 1.21 µM (≈ 0.39 µg/mL) and the CC50 [5] was greater than 155 µM. For the same compound, the inhibition [6] was “Active”, the MIC [7] was greater than 155 µM and the Activity (Escherichia coli) was “inactive”. The CC50 [8] was 118 µM and the Activity [9] was “inactive”.

For CCCCCNC(=O)COc1cc(C)nc2ccc(OC)cc12, the MIC [1] was 19.8 µM (≈ 6.25 µg/mL), the Activity [2] was “inactive” and the Activity (Staphylococcus aureus) was “inactive”. The Activity [3] was “inactive”, the MIC [4] was 158 µM (≈ 50 µg/mL) and the CC50 [5] was greater than 158 µM. For the same compound, the inhibition [6] was “Active”, the MIC [7] was 158 µM (≈ 50 µg/mL) and the Activity (Escherichia coli) was “inactive”. For the same compound, the CC50 [8] was 106 µM and the Activity [9] was “inactive”.

In the case of COc1ccccc1NC(=O)COc1cc(C)nc2ccc(Br)cc12, the MIC [1] is reported as greater than 125 µM, the Activity [2] is reported as “inactive” and the Activity (Staphylococcus aureus) is reported as “inactive”. For the same compound, the Activity [3] was “inactive”, the MIC [4] was 23.4 µM (≈ 9.4 µg/mL) and the CC50 [5] was greater than 125 µM. For the same compound, the inhibition [6] was “Active”, the MIC [7] was greater than 125 µM and the Activity (Escherichia coli) was “inactive”. For the same compound, the CC50 [8] was greater than 125 µM and the Activity [9] was “inactive”.

CCCCCC[C@H]1C(=O)O[C@H](C)[C@H](NC(=O)c2cccc(NC=O)c2O)C(=O)O[C@@H](C)[C@@H]1OC(=O)CC(C)C [ANTIMYCIN A] gave a CC50 [5] greater than 50 µM and a CC50 [8] of 0.017 µM.

With C#CCNC(=O)COc1cc(C)nc2ccc(OC)cc12 the MIC [1] was greater than 176 µM, the Activity [2] was “inactive” and the Activity (Staphylococcus aureus) was “inactive”. For the same compound, the Activity [3] was “inactive”, the MIC [4] was greater than 176 µM and the CC50 [5] was greater than 176 µM. The inhibition [6] was “Active”, the MIC [7] was greater than 176 µM and the Activity (Escherichia coli) was “inactive”. The CC50 [8] was greater than 176 µM and the Activity [9] was “inactive”.

In the case of COc1ccc2nc(C)cc(OCC(=O)NCc3ccc4c(c3)OCO4)c2c1, the MIC [1] is reported as 0.53 µM (≈ 0.202 µg/mL), the Activity [2] is reported as “inactive” and the Activity (Staphylococcus aureus) is reported as “inactive”. The Activity [3] was “inactive”, the MIC [4] was 0.53 µM (≈ 0.202 µg/mL) and the CC50 [5] was greater than 131 µM. The inhibition [6] was “Active”, the MIC [7] was 24.7 µM (≈ 9.4 µg/mL) and the Activity (Escherichia coli) was “inactive”. The CC50 [8] was 86.9 µM and the Activity [9] was “inactive”.

With COc1ccc2nc(C)cc(OCC(=O)NCCc3ccc(OC)c(OC)c3)c2c1 the MIC [1] was 122 µM (≈ 50.1 µg/mL), the Activity [2] was “inactive” and the Activity (Staphylococcus aureus) was “inactive”. For the same compound, the Activity [3] was “inactive”, the MIC [4] was greater than 122 µM and the CC50 [5] was greater than 122 µM. The inhibition [6] was “Active”, the MIC [7] was greater than 122 µM and the Activity (Escherichia coli) was “inactive”. The CC50 [8] was greater than 122 µM and the Activity [9] was “inactive”.

With COc1ccc2nc(C)cc(OCC(=O)Nc3ccc4c(c3)OCO4)c2c1 the MIC [1] was 2.13 µM (≈ 0.78 µg/mL), the Activity [2] was “inactive” and the Activity (Staphylococcus aureus) was “inactive”. The Activity [3] was “inactive”, the MIC [4] was 4.26 µM (≈ 1.56 µg/mL) and the CC50 [5] was 80 µM. The inhibition [6] was “Active”, the MIC [7] was greater than 136 µM and the Activity (Escherichia coli) was “inactive”. The CC50 [8] was 39.6 µM and the Activity [9] was “inactive”.

With COc1ccccc1NC(=O)COc1cc(C)nc2ccc(C)cc12 the MIC [1] was 9.3 µM (≈ 3.13 µg/mL), the Activity [2] was “inactive” and the Activity (Staphylococcus aureus) was “inactive”. The Activity [3] was “inactive”, the MIC [4] was 56.5 µM (≈ 19 µg/mL) and the CC50 [5] was greater than 74 µM. The inhibition [6] was “Active”, the MIC [7] was greater than 74 µM and the Activity (Escherichia coli) was “inactive”. The CC50 [8] was greater than 74 µM and the Activity [9] was “inactive”.

With COc1ccc(NC(=O)COc2cc(C)nc3ccc(OC)cc23)c(OC)c1 the MIC [1] was 2.04 µM (≈ 0.78 µg/mL), the Activity [2] was “inactive” and the Activity (Staphylococcus aureus) was “inactive”. For the same compound, the Activity [3] was “inactive”, the MIC [4] was 24.6 µM (≈ 9.4 µg/mL) and the CC50 [5] was greater than 131 µM. For the same compound, the inhibition [6] was “Active”, the MIC [7] was 32.7 µM (≈ 12.5 µg/mL) and the Activity (Escherichia coli) was “inactive”. For the same compound, the CC50 [8] was greater than 131 µM and the Activity [9] was “inactive”.

With COCCNC(=O)COc1cc(C)nc2ccc(OC)cc12 the MIC [1] was 122 µM (≈ 37 µg/mL), the Activity [2] was “inactive” and the Activity (Staphylococcus aureus) was “inactive”. For the same compound, the Activity [3] was “inactive”, the MIC [4] was greater than 164 µM and the CC50 [5] was greater than 164 µM. For the same compound, the inhibition [6] was “Active”, the MIC [7] was greater than 164 µM and the Activity (Escherichia coli) was “inactive”. For the same compound, the CC50 [8] was greater than 164 µM and the Activity [9] was “inactive”.

For COc1ccc2nc(C)cc(OCC(=O)NCCc3ccccc3)c2c1, the MIC [1] was 54.2 µM (≈ 19 µg/mL), the Activity [2] was “inactive” and the Activity (Staphylococcus aureus) was “inactive”. The Activity [3] was “inactive”, the MIC [4] was 143 µM (≈ 50 µg/mL) and the CC50 [5] was 61.4 µM. For the same compound, the inhibition [6] was “Active”, the MIC [7] was greater than 143 µM and the Activity (Escherichia coli) was “inactive”. The CC50 [8] was 83.9 µM and the Activity [9] was “inactive”.

With COc1nc2ccc(Br)cc2cc1[C@@H](c1ccccc1)[C@@](O)(CCN(C)C)c1cccc2ccccc12 the inhibition [6] was “Active”.

For Nc1ccc(C(=O)O)c(O)c1 [AMINOSALICYLIC ACID], the MIC [1] was 0.3 µM (≈ 0.0459 µg/mL), the MIC [4] was 0.3 µM (≈ 0.0459 µg/mL) and the MIC [7] was 0.6 µM (≈ 0.0919 µg/mL).

Work on c1ccc(Cn2cnc3c(-c4ccco4)nccc32)cc1 yielded an MIC [1] of 1.56 µM (≈ 0.429 µg/mL), an MIC [4] of 12.5 µM (≈ 3.44 µg/mL) and a CC50 [5] greater than 25 µM. For the same compound, the inhibition [6] was “Active”, the MIC [7] was greater than 25 µM and the CC50 [8] was greater than 25 µM.

For CC(=O)NC[C@H]1CN(c2ccc(N3CCOCC3)c(F)c2)C(=O)O1 [LINEZOLID], the MIC [1] was 2.3 µM (≈ 0.776 µg/mL), the MIC [4] was 2.3 µM (≈ 0.776 µg/mL) and the inhibition [6] was “inactive”. The MIC [7] was 2.3 µM (≈ 0.776 µg/mL).
